Measured values from patent US20250177396A1, “POLO-LIKE KINASE 4 (PLK4) INHIBITORS, PHARMACEUTICAL COMPOSITIONS, METHODS OF PREPARATION AND USES THEREOF” (Repare Therapeutics Inc., priority 2022, published 2025).

The molecules below were run against T1, PLK4 (Homo sapiens, UniProt O00444) (assay: PLK4 NanoBRET target engagement assay). Details: HEK293 T cells transfected with PLK4 NanoLuc fusion vector; K-5 tracer; 2 hrs incubation.
T1 construct: expressed in transfected cells; host or cells: HEK293 T cells (ATCC CRL-3216)
T1 sequence (O00444 1-970): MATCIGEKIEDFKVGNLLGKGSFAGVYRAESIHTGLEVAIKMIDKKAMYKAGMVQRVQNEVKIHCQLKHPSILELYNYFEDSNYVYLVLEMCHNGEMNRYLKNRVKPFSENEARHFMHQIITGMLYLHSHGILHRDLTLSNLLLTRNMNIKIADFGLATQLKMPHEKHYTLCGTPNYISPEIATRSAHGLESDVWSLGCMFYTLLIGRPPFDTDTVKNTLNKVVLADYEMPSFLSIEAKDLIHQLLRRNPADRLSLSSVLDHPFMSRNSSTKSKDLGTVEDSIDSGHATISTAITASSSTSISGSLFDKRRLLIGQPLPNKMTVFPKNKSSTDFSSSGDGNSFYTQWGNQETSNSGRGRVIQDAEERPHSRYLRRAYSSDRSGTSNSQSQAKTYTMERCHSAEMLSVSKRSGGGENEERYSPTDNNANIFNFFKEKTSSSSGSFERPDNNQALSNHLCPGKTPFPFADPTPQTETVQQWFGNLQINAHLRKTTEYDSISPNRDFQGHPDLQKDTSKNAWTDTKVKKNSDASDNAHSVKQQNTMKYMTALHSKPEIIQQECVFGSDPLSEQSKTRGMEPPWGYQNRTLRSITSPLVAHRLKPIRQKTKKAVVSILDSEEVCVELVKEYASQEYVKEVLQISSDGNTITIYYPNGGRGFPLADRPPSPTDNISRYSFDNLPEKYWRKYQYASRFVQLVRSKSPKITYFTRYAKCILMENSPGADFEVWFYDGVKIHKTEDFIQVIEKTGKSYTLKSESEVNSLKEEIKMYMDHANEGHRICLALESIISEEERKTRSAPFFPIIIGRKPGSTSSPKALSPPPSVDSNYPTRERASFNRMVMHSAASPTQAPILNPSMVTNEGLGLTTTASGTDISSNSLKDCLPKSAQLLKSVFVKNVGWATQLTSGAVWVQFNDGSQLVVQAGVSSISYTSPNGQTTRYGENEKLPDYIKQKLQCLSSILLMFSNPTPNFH
Assay type: binding
Experimental: To determine the affinity of Compounds described herein in the PLK4 NanoBRET target engagement assay, HEK293 T cells (ATCC Product Number CRL-3216) are first transfected with the PLK4 NanoLuc fusion vector DNA and Transfection carrier DNA using the Fugene HD Transfection reagent in Opti-MEM No Phenol Red buffer. After an overnight incubation in a 37° C./5% CO2 incubator, the transfected HEK293 T cells are trypsinized, counted, and resuspended in Opti-MEM No Phenol Red buffer at a concentration of 200000 cells/mL. White 96-well plates are then plated with 85 μL of cells (17000 cells/well) to which 5 μL of the 20×K-5 tracer solution diluted in tracer dilution buffer is added. Finally, 10 μL of the 10× compounds are added and the plates and then incubated in a 37° C./5% CO2 incubator for 2 hrs. After the incubation, a 50 uL 3× solution of the substrate/inhibitor mix is added to the cells. The plate is then transferred in the Envision plate reader where the Acceptor emission (610 nm) and the Donor emission (450 nm) are measured.
The IC50 of compounds is determined as follows: • 1. The ratio between the Acceptor emission (610 nm)/Donor emission (450 nm) is calculated. • 2. This ratio is then multiplied by 1000 to obtain the mBRET units (multiplying by 1000 is an arbitrary step that simply makes the data easier to interpret; it has no impact on the data set itself) • 3. The mBRET units are then used in Scigilian Analyze software (https://analyze.scigilian.io) to determine the IC50 value using a 4-parameter fit analysis.

| IC50 | Structure (SMILES) |
| --- | --- |
| 220 nM | COc1c(Nc2cc(C)[nH]n2)nc(Nc2ccc(S(C)(=O)=O)cc2F)nc1-c1cnn(C)c1 [Compound 1, N^2-(2-fluoro-4-(methylsulfonyl)phenyl)-5-methoxy-N^4-(5-methyl-1H-pyrazol-3-yl)-6-(1-methyl-1H-pyrazol-4-yl)pyrimidine-2,4-diamine] |
| 53 nM | COc1c(Nc2cc(C)[nH]n2)nc(N(C)c2ccc(S(C)(=O)=O)cc2F)nc1-c1cnn(C)c1 [Compound 2, N^2-(2-fluoro-4-(methylsulfonyl)phenyl)-5-methoxy-N^2-methyl-N^4-(5-methyl-1H-pyrazol-3-yl)-6-(1-methyl-1H-pyrazol-4-yl)pyrimidine-2,4-diamine] |
| 68 nM | CCN(c1nc(Nc2cc(C)[nH]n2)c(OC)c(-c2cnn(C)c2)n1)c1ccc(S(C)(=O)=O)cc1F [Compound 3, N^2-ethyl-N^2-(2-fluoro-4-(methylsulfonyl)phenyl)-5-methoxy-N^4-(5-methyl-1H-pyrazol-3-yl)-6-(1-methyl-1H-pyrazol-4-yl)pyrimidine-2,4-diamine] |
| 720 nM | COc1c(Nc2cc(C)[nH]n2)nc(N(Cc2ccc(F)cc2)c2ccc(S(C)(=O)=O)cc2F)nc1-c1cnn(C)c1 [Compound 4, N^2-(2-fluoro-4-(methylsulfonyl)phenyl)-N^2-(4-fluorobenzyl)-5-methoxy-N^4-(5-methyl-1H-pyrazol-3-yl)-6-(1-methyl-1H-pyrazol-4-yl)pyrimidine-2,4-diamine] |
| 1100 nM | COc1c(Nc2cc(C)[nH]n2)nc(N2CCc3cc(S(C)(=O)=O)ccc32)nc1-c1cnn(C)c1 [Compound 5, 5-methoxy-N-(5-methyl-1H-pyrazol-3-yl)-6-(1-methyl-1H-pyrazol-4-yl)-2-(5-(methylsulfonyl)indolin-1-yl)pyrimidin-4-amine] |
| 49 nM | COc1c(Nc2cc(C)[nH]n2)nc(N(C)c2ccc(S(C)(=O)=O)cc2F)nc1-c1ccn(C)n1 [Compound 6, N^2-(2-fluoro-4-(methylsulfonyl)phenyl)-5-methoxy-N^2-methyl-6-(1-methyl-1H-pyrazol-3-yl)-N^4-(5-methyl-1H-pyrazol-3-yl)pyrimidine-2,4-diamine] |
| 65 nM | COc1c(Nc2cc(C)[nH]n2)nc(N(C)c2ccc(S(=O)(=O)C3CC3)cc2F)nc1-c1cnn(C)c1 [Compound 7, N^2-(4-(cyclopropylsulfonyl)-2-fluorophenyl)-5-methoxy-N^2-methyl-N^4-(5-methyl-1H-pyrazol-3-yl)-6-(1-methyl-1H-pyrazol-4-yl)pyrimidine-2,4-diamine] |
| 6 nM | COc1c(Nc2cc(C)[nH]n2)nc(N(C)c2c(F)cc(S(C)(=O)=O)cc2F)nc1-c1cnn(C)c1 [Compound 8, N^2-(2,6-difluoro-4-(methylsulfonyl)phenyl)-5-methoxy-N^2-methyl-N^4-(5-methyl-1H-pyrazol-3-yl)-6-(1-methyl-1H-pyrazol-4-yl)pyrimidine-2,4-diamine] |
| 400 nM | COc1c(Nc2cc(C)[nH]n2)nc(Oc2ccc(S(C)(=O)=O)cc2F)nc1-c1cnn(C)c1 [Compound 9, 2-(2-fluoro-4-(methylsulfonyl)phenoxy)-5-methoxy-N-(5-methyl-1H-pyrazol-3-yl)-6-(1-methyl-1H-pyrazol-4-yl)pyrimidin-4-amine] |
| 16 nM | Cc1cc(Nc2nc(N(C)c3ccc(S(C)(=O)=O)cc3F)nc(-c3ccn(C)n3)c2C2CC2)n[nH]1 [Compound 12, 5-cyclopropyl-N^2-(2-fluoro-4-(methylsulfonyl)phenyl)-N^2-methyl-6-(1-methyl-1H-pyrazol-3-yl)-N^4-(5-methyl-1H-pyrazol-3-yl)pyrimidine-2,4-diamine] |
| 5 nM | Cc1cc(Nc2nc(N(C)c3c(F)cc(S(C)(=O)=O)cc3F)nc(-c3ccn(C)n3)c2C2CC2)n[nH]1 [Compound 13, 5-cyclopropyl-N^2-(2,6-difluoro-4-(methylsulfonyl)phenyl)-N^2-methyl-6-(1-methyl-1H-pyrazol-3-yl)-N^4-(5-methyl-1H-pyrazol-3-yl)pyrimidine-2,4-diamine] |
| 200 nM | Cc1cc(Nc2nc(Nc3ccc(S(C)(=O)=O)cc3F)nc(-c3cn(C)cn3)c2C2CC2)n[nH]1 [Compound 16, 5-cyclopropyl-N^2-(2-fluoro-4-(methylsulfonyl)phenyl)-6-(1-methyl-1H-imidazol-4-yl)-N^4-(5-methyl-1H-pyrazol-3-yl)pyrimidine-2,4-diamine] |
| 20 nM | Cc1cc(Nc2nc(N(C)c3ccc(S(C)(=O)=O)cc3F)nc(-c3cn(C)cn3)c2C2CC2)n[nH]1 [Compound 17, 5-cyclopropyl-N^2-(2-fluoro-4-(methylsulfonyl)phenyl)-N^2-methyl-6-(1-methyl-1H-imidazol-4-yl)-N^4-(5-methyl-1H-pyrazol-3-yl)pyrimidine-2,4-diamine] |
| 56 nM | COc1c(-c2cnn(C)c2)cc(N(C)c2ccc(S(C)(=O)=O)cc2F)nc1Nc1cc(C)[nH]n1 [Compound 19, N^6-(2-fluoro-4-(methylsulfonyl)phenyl)-3-methoxy-N^6-methyl-N^2-(5-methyl-1H-pyrazol-3-yl)-4-(1-methyl-1H-pyrazol-4-yl)pyridine-2,6-diamine] |
| 69 nM | Cc1cc(Nc2nc(N(C)c3ccc(S(C)(=O)=O)cc3F)cc(-c3cnn(C)c3)c2C2CC2)n[nH]1 [Compound 20, 3-cyclopropyl-N^6-(2-fluoro-4-(methylsulfonyl)phenyl)-N^6-methyl-N^2-(5-methyl-1H-pyrazol-3-yl)-4-(1-methyl-1H-pyrazol-4-yl)pyridine-2,6-diamine] |
| 53 nM | COc1c(-c2cnn(C)c2)cc(Sc2ccc(S(C)(=O)=O)cc2F)nc1Nc1cc(C)[nH]n1 [Compound 21, 6-((2-fluoro-4-(methylsulfonyl)phenyl)thio)-3-methoxy-N-(5-methyl-1H-pyrazol-3-yl)-4-(1-methyl-1H-pyrazol-4-yl)pyridin-2-amine] |
| 96 nM | COc1c(Nc2cc(C)[nH]n2)nc(Sc2ccc(S(C)(=O)=O)cc2F)c(C)c1-c1cnn(C)c1 [Compound 22, 6-((2-fluoro-4-(methylsulfonyl)phenyl)thio)-3-methoxy-5-methyl-N-(5-methyl-1H-pyrazol-3-yl)-4-(1-methyl-1H-pyrazol-4-yl)pyridin-2-amine] |
| 210 nM | COc1c(Nc2cc(C)[nH]n2)nc(Nc2ccc(S(C)(=O)=O)cc2F)c(C)c1-c1cnn(C)c1 [Compound 23, N^2-(2-fluoro-4-(methylsulfonyl)phenyl)-5-methoxy-3-methyl-N^6-(5-methyl-1H-pyrazol-3-yl)-4-(1-methyl-1H-pyrazol-4-yl)pyridine-2,6-diamine] |
| 1100 nM | COc1c(Nc2cc(C)[nH]n2)nc(N(C)c2ccc(S(C)(=O)=O)cc2F)c(F)c1-c1cnn(C)c1 [Compound 24, 3-fluoro-N^2-(2-fluoro-4-(methylsulfonyl)phenyl)-5-methoxy-N^2-methyl-N^6-(5-methyl-1H-pyrazol-3-yl)-4-(1-methyl-1H-pyrazol-4-yl)pyridine-2,6-diamine] |
| 5 nM | [2H]C([2H])([2H])N(C([2H])([2H])[2H])S(=O)(=O)c1ccc(N(C)c2nc(Nc3cc(C)[nH]n3)c(C3CC3)c(-c3cnn(C)c3)n2)c(F)c1 [Compound 26] |
| 1300 nM | COc1c(Nc2cc(C)[nH]n2)nc(Oc2c(F)cc(Br)cc2F)nc1-c1cnn(C)c1 [Compound 29] |
| 620 nM | COc1c(Nc2cc(C)[nH]n2)nc(Oc2ccc(N(C)S(C)(=O)=O)cc2)nc1-c1cnn(C)c1 [Compound 31] |
| 2800 nM | COc1c(Nc2cc(C)[nH]n2)nc(Oc2ccc(NS(C)(=O)=O)cc2)nc1-c1cnn(C)c1 [Compound 32] |
| 1100 nM | COc1c(Nc2cc(C)[nH]n2)nc(Oc2ccc(S(C)(=O)=O)cc2Br)nc1-c1cnn(C)c1 [Compound 33] |
